Source: patent US4668782A, “Anhydrous crystalline or crystalline hemihydrate monohydrate or trihydrate of cephalosporin derivative” (Teijin Limited, priority 1984, dated 1987)
In brackets after ≈: the same amount, converted by molar mass. Like-named read-outs stand apart in the source and are kept apart here.

Columns and labels:
[1] = type: physicochemical; details: sealed brown vials
Description: (2) The trihydrate, monohydrate, hemihydrate, and anhydride were sealed up in the brown vials respectively and stored at 85° C. and were analyzed by high performance liquid chromatography later. The result is shown in the following table (residuum percentage: %).

moisture uptake = type: physicochemical
physchem = details: water
[2] = test system: Gram-positive and Gram-negative bacterials; details: Japanese Laid-Open Patent Publication No. 219292/1984; cited from earlier work
[3] = test system: Pseudomonas aeruginosa IFO 3445; experiment: antibacterial activity, agar dilution plating method (MIC); type: cell-based; details: IFO3445
Description: (§1) (ii) The antibacterial activity of the obtained amorphous substance was determined according to the ordinary agar dilution plating method (see the Chemotherapy, 23(8), 1 (1975), of Japan Chemotherapy Society).

Proteus vulgaris OX-19 = experiment: as above; type: cell-based; details: OX19
Description: as §1

Typhoid bacillus 901 = experiment: as above; type: cell-based
Description: as §1

[4] = test system: Coliform bacillus NIHJ-JC-2; experiment: as above; type: cell-based; details: NIHJJC2
Description: as §1

[5] = test system: Aerobacter aerogenes ATCC 13048; experiment: as above; type: cell-based; details: Klebsiella aerogenes, ATCC13048
Description: as §1

[6] = test system: Bacillus prodigiosus IAM 1184; experiment: as above; type: cell-based; details: IAM1184
Description: as §1

[7] = test system: Staphylococcus aureus FDA 209 PJC-1; experiment: as above; type: cell-based; details: FDA209
Description: as §1

[8] = test system: various kinds of Gram-positive and Gram-negative bacterias; experiment: antibacterial activity against Gram-positive and Gram-negative bacteria (general statement); type: cell-based

Structure (SMILES) | residuum percentage ([1]; 240 h) | residuum percentage ([1]; 576 h) | conversion upon being allowed to take up moisture (moisture uptake) | further results
CO/N=C(\C(=O)N[C@@H]1C(=O)N2C(C(=O)[O-])=C(C[N+]34CCC(CC3)CC4)CS[C@H]12)c1csc(N)n1 [Amorphous substance, (6R,7R)-7-[(Z)-2-(2-aminothiazole-4-yl)-2-methoxyiminoacetoamido]-3-(1-quinuclidiniummethyl)-3-cephem-4-carboxylate] | 0% | 0% | – | –
CO/N=C(\C(=O)N[C@@H]1C(=O)N2C(C(=O)[O-])=C(C[N+]34CCC(CC3)CC4)CS[C@H]12)c1csc(N)n1 [Anhydride, (6R,7R)-7-[(Z)-2-(2-aminothiazole-4-yl)-2-methoxyiminoacetoamido]-3-(1-quinuclidiniummethyl)-3-cephem-4-carboxylate] | 97.5% | 86.0% | reversionally converted back to the original trihydrate | –
CO/N=C(\C(=O)N[C@@H]1C(=O)N2C(C(=O)[O-])=C(C[N+]34CCC(CC3)CC4)CS[C@H]12)c1csc(N)n1 [Hemihydrate, (6R,7R)-7-[(Z)-2-(2-aminothiazole-4-yl)-2-methoxyiminoacetoamido]-3-(1-quinuclidiniummethyl)-3-cephem-4-carboxylate] | 98.3% | 86.3% | reversionally converted back to the original trihydrate | –
CO/N=C(\C(=O)N[C@@H]1C(=O)N2C(C(=O)[O-])=C(C[N+]34CCC(CC3)CC4)CS[C@H]12)c1csc(N)n1 [Monohydrate, (6R,7R)-7-[(Z)-2-(2-aminothiazole-4-yl)-2-methoxyiminoacetoamido]-3-(1-quinuclidiniummethyl)-3-cephem-4-carboxylate] | 96.1% | 85.5% | reversionally converted back to the original trihydrate | –
CO/N=C(\C(=O)N[C@@H]1C(=O)N2C(C(=O)[O-])=C(C[N+]34CCC(CC3)CC4)CS[C@H]12)c1csc(N)n1 [Trihydrate, (6R,7R)-7-[(Z)-2-(2-aminothiazole-4-yl)-2-methoxyiminoacetoamido]-3-(1-quinuclidiniummethyl)-3-cephem-4-carboxylate] | 97.0% | 86.8% | – | –
CO/N=C(\C(=O)N[C@@H]1C(=O)N2C(C(=O)[O-])=C(C[N+]34CCC(CC3)CC4)CS[C@H]12)c1csc(N)n1 [cephalosporin derivative A, (6R,7R)-7-[(Z)-2-(2-aminothiazole-4-yl)-2-methoxyiminoacetoamido]-3-(1-quinuclidiniummethyl)-3-cephem-4-carboxylate] | – | – | – | solubility (physchem): ~300 mg/mL (≈ 592000 µM); antibacterial activity [2]: strong antibacterial activity
CO/N=C(\C(=O)N[C@@H]1C(=O)N2C(C(=O)[O-])=C(C[N+]34CCC(CC3)CC4)CS[C@H]12)c1nsc(N)n1 [cephalosporin derivative B, (6R,7R)-7-[(Z)-2-(5-amino-1-thia-2,4-diazole-3-yl)-2-methoxyiminoacetoamido]-3-(1-quinuclidiniummethyl)-3-cephem-4-carboxylate] | – | – | – | solubility (physchem): ~300 mg/mL (≈ 591000 µM); MIC [3]: 0.4 µg/mL (≈ 0.788 µM); MIC (Proteus vulgaris OX-19): 0.2 µg/mL (≈ 0.394 µM); MIC (Typhoid bacillus 901): 0.2 µg/mL (≈ 0.394 µM); MIC [4]: 0.05 µg/mL (≈ 0.0985 µM); MIC [5]: 0.1 µg/mL (≈ 0.197 µM); MIC [6]: 0.1 µg/mL (≈ 0.197 µM); MIC [7]: 3.1 µg/mL (≈ 6.11 µM); antibacterial activity [8]: strong antibacterial activity
